Results published in patent US5212185A, “Piperidinyl-terminated alkylamino ethynyl alanine amino diol compounds for treatment of hypertension” (G. D. Searle & Co., priority 1992, dated 1993).
Each block holds one molecule with its values, some of them ahead of it. Square brackets hold non-standard residues; d marks the D form. Peptide text beside a SMILES is read from it. * marks the point of attachment. Sta = CC(C)C[C@H](N)[C@@H](O)CC(=O)O; Isovaleryl = CC(C)CC(=O)*

What was measured:
[1] = target: T1, human renin (Homo sapiens, UniProt P00797); assay: Human Renin Inhibition in vitro (angiotensin I generation by radioimmunoassay); assay type: biochemical; conditions: pH 7.4, 37° C., two hours, human plasma
T1 construct: purchased National Institute for Biological Standards, London
T1 sequence (P00797 67-406): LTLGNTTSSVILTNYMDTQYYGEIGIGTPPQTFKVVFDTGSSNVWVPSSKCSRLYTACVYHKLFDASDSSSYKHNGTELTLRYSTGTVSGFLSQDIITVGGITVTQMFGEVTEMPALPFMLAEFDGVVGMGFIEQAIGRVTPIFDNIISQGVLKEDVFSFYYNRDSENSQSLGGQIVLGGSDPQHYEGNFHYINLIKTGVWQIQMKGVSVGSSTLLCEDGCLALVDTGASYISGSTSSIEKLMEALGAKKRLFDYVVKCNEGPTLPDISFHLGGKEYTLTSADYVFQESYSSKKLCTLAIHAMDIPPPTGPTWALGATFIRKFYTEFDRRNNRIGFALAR
Description: Compounds of Formula I were evaluated as inhibitors of human renin in an in vitro assay, as follows: This human renin inhibition test has been previously described in detail [Papaioannou et al., Clinical and Experimental Hypertension, A7(9), 1243-1257 (1985)]. Human renin was obtained from the National Institute for Biological Standards, London. An incubation mixture was prepared containing the following components: in a total volume of 0.25 mL: 100 mM Tris-acetate buffer at pH 7.4, 25×10^-6 Goldblatt units of renin, 0.05 mL of plasma from human volunteers taking oral contraceptives, 6.0 mM Na-EDTA, 2.4 mM phenylmethyl sulfonyl fluoride, 1.5 mM 8-hydroxyquinoline, 0.4 mg/mL bovine serum albumin (BSA), and 0.024 mg/mL neomycin sulfate. This mixture was incubated for two hours at 37° C. in the presence or absence of renin inhibitors. The produced angiotensin I was determined by radioimmunoassay (New England Nuclear kit). Test compounds to be assayed were dissolved in DMSO and diluted with 100mM Tris-acetate buffer at pH 7.4 containing 0.5% BSA to the appropriate concentration. The final concentration of organic solvent in the reaction mixture was less than 1%. Control incubations at 37° C. were used to correct for effects of organic solvent on renin activity.

[2] = system: hog renin; conditions: after the injection of hog renin into nephrectomized rats; cited from earlier work
[3] = system: pepsin; conditions: cited from earlier work
[4] = system: cathepsin D; conditions: cited from earlier work
[5] = system: renin; conditions: cited from earlier work
[6] = system: acid proteases; conditions: cited from earlier work

IC50 [1]: 0.83 nM
Compound: C#CC[C@H](NC(=O)[C@@H](CC(=O)N(C)CCN1CCCCC1)Cc1ccccc1)C(=O)N[C@@H](CC1CCCCC1)[C@@H](O)[C@@H](O)CC(C)C [Example 1]

IC50 [1]: 0.56 nM
Compound: C#CC[C@H](NC(=O)[C@@H](CC(=O)N(C)CCN1Cc2ccccc2C1)Cc1ccccc1)C(=O)N[C@@H](CC1CCCCC1)[C@@H](O)[C@@H](O)CC(C)C [Example 2]

Compound: C#CC[C@H](NC(=O)[C@@H](CC(=O)N(C)CCN1CC2CCC(CC2)C1)Cc1ccccc1)C(=O)N[C@@H](CC1CCCCC1)[C@@H](O)[C@@H](O)CC(C)C [Example 3]
IC50 [1]: 1.2 nM

Compound: CC(C)CC(=O)N[C@H](C(=O)N[C@H](C(=O)N[C@@H](CC(C)C)[C@@H](O)CC(=O)N[C@@H](C)C(=O)N[C@@H](CC(C)C)[C@@H](O)CC(=O)O)C(C)C)C(C)C [pepstatin] (Isovaleryl-VV[Sta]A[Sta]-OH)
reduce blood pressure in vivo [2]: found to reduce blood pressure in vivo
inhibition of pepsin [3]: inhibitor of aspartyl proteases such as pepsin
inhibition of cathepsin D [4]: inhibitor of aspartyl proteases such as pepsin, cathepsin D
inhibition of renin [5]: inhibitor of aspartyl proteases such as pepsin, cathepsin D and renin
inhibiting acid proteases in addition to renin [6]: inhibiting acid proteases in addition to renin
